Experimental data taken from PubChem BioAssay (NCI).
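In this assay, cells in 96-well plates receive the compound at five concentrations for 48 hours. Endpoints are linearly interpolated between the surrounding concentrations. GI50 is the concentration that inhibits growth by half. TGI denotes the concentration required for complete inhibition of growth.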

Key:
Assay in all cases: inhibition of tumour cell growth, NCI panel, 48 h
LOX IMVI melanoma = tested on: LOX IMVI melanoma
ACHN renal = tested on: ACHN renal
T-47D breast = tested on: T-47D breast
HS 578T breast = tested on: HS 578T breast
UACC-62 melanoma = tested on: UACC-62 melanoma
SF-268 CNS = tested on: SF-268 CNS
MDA-MB-435 = tested on: MDA-MB-435
786-0 renal = tested on: 786-0 renal
NCI-H23 lung = tested on: NCI-H23 lung
SNB-75 CNS = tested on: SNB-75 CNS

SMILES	GI50 (LOX IMVI melanoma)	TGI (LOX IMVI melanoma)	GI50 (ACHN renal)	TGI (ACHN renal)	GI50 (T-47D breast)	TGI (T-47D breast)	GI50 (HS 578T breast)	TGI (HS 578T breast)	GI50 (UACC-62 melanoma)	TGI (UACC-62 melanoma)	GI50 (SF-268 CNS)	TGI (SF-268 CNS)	GI50 (MDA-MB-435)	TGI (MDA-MB-435)	GI50 (786-0 renal)	TGI (786-0 renal)	GI50 (NCI-H23 lung)	TGI (NCI-H23 lung)	GI50 (SNB-75 CNS)	TGI (SNB-75 CNS)
O[C@H](c1cc(C(F)(F)F)nc2c(C(F)(F)F)cccc12)[C@@H]1CCCCN1	1.51 µM	2.99 µM	2.82 µM	10.7 µM	3.82 µM	16 µM	4.35 µM	25.5 µM	5.9 µM	17.5 µM	3.54 µM	15 µM	2.43 µM	7.07 µM	4.68 µM	12.5 µM	4.75 µM	16.6 µM	2.21 µM	11.5 µM
NC(=O)c1cc(S(=O)(=O)Nc2nnc(-c3ccccc3)c(-c3ccccc3)n2)c(SCc2ccccc2)cc1Cl	> 82.3 µM	> 100 µM	> 100 µM	> 100 µM	> 100 µM	> 100 µM	> 44.4 µM	> 75.5 µM	71.1 µM	> 100 µM	> 87.5 µM	> 100 µM	> 53.4 µM	> 100 µM	> 100 µM	> 100 µM	> 72.3 µM	> 100 µM		> 61.5 µM
O=C(O)c1ccc(OCc2ccccc2)c(Cl)c1		> 100 µM		> 100 µM		> 100 µM		> 100 µM		> 100 µM		> 100 µM		> 100 µM		> 100 µM		> 100 µM		> 100 µM
COc1ccc(-c2ccc(-c3ccc(C(=N)N)s3)s2)cc1	0.191 µM	0.382 µM	0.19 µM	0.359 µM	0.243 µM	0.596 µM	0.295 µM	1.41 µM	0.188 µM	0.357 µM	0.211 µM	0.451 µM	0.179 µM	0.336 µM	0.187 µM	0.378 µM	0.264 µM	0.66 µM	1.39 µM	2.91 µM
COCC1(CO)C(=O)C2CCN1CC2 (stereo not drawn)	18.2 µM	37.2 µM	14.5 µM	28.7 µM	9.55 µM	34.3 µM	> 67.5 µM	> 100 µM	23 µM	> 56.1 µM	> 90.1 µM	> 100 µM	17.1 µM	32.8 µM	17.4 µM	35.5 µM	19.7 µM	46 µM	21.9 µM	> 94.2 µM
Cc1nc2sc3c(c2c(=O)[nH]1)CCCC3		> 100 µM		> 100 µM		> 100 µM		> 100 µM		> 100 µM		> 100 µM		> 100 µM		> 100 µM		> 100 µM		> 100 µM
CN(CCO)c1ccc(N2Cc3ccccc3OC3=C2C(=O)c2c(O)ccc(O)c2C3=O)cn1	0.114 µM	0.33 µM	0.0462 µM	0.179 µM	0.176 µM	0.577 µM	0.418 µM	> 100 µM	0.21 µM	0.498 µM	0.274 µM	0.938 µM	0.215 µM	0.478 µM	0.245 µM	0.74 µM	0.263 µM	0.834 µM	0.348 µM	1.8 µM
Cc1nc(-[n+]2nc(-c3ccncc3)nn2-c2ccccc2)sc1C		> 100 µM		> 100 µM		> 100 µM		> 100 µM		> 100 µM		> 100 µM		> 100 µM		> 100 µM		> 100 µM		> 100 µM
N=C(N)c1ccc2nc(-c3cc(CC(=O)N[C@@H](CC(=O)O)C(=O)O)cc(-c4cc(S(N)(=O)=O)ccc4O)c3O)[nH]c2c1	> 100 µM	> 100 µM	> 100 µM	> 100 µM	> 100 µM	> 100 µM	> 100 µM	> 100 µM	> 100 µM	> 100 µM	> 100 µM	> 100 µM	> 100 µM	> 100 µM	> 100 µM	> 100 µM	> 100 µM	> 100 µM	> 100 µM	> 100 µM
c1ccc2nc3c(nc2c1)sc1ccccc13		> 100 µM		35.7 µM		> 100 µM		> 100 µM		79.3 µM		46.1 µM		> 100 µM		64.2 µM		71.1 µM		62.8 µM
C1=C\COCc2cc(ccc2OCCN2CCCC2)Nc2nccc(n2)-c2cccc(c2)COC/1	0.847 µM	2.88 µM	1.12 µM	4.8 µM	1.37 µM	5.12 µM	1.18 µM	5.78 µM	2.02 µM	5.2 µM	2.03 µM	5.77 µM	1.53 µM	4.65 µM	3.51 µM	5.18 µM	2.09 µM	5.79 µM	1.64 µM	4.75 µM
NCCSc1nc(-c2ccccc2)c(-c2ccccc2)o1		> 100 µM		> 100 µM		> 100 µM		> 100 µM		> 100 µM		> 100 µM		> 100 µM		> 100 µM		> 100 µM		61.4 µM
CCN1CCC(O)(/C=C/c2ccc(C)cc2)C(C(=O)/C=C/c2ccc(C)cc2)C1 (stereo not drawn)		2.59 µM		14.7 µM		9.89 µM		7.55 µM		12.3 µM		24.6 µM		8.75 µM		4.29 µM		18.5 µM		22 µM
O=C(O)CC(NC(=O)CP(=O)(O)O)C(=O)O (stereo not drawn)		824 µM		> 10000 µM		> 10000 µM	74.5 µM	> 10000 µM		6640 µM	95.8 µM	> 10000 µM	48.8 µM	> 10000 µM	71 µM	> 6000 µM		> 10000 µM		> 10000 µM
O=C1c2ccccc2-c2c1c1ccccc1c(=O)n2CCCCl	6.78 µM	35.7 µM	3.03 µM	12.3 µM	22.5 µM	> 100 µM	17.6 µM	73.5 µM	6.75 µM	23.9 µM	10.3 µM	80.8 µM	28 µM	> 100 µM	4.86 µM	18.2 µM	15.7 µM	50.1 µM	8.4 µM	36.6 µM
C#COc1cccc(Nc2c(C#N)cnc3ncc(NC(=O)CCl)cc23)c1	28.8 µM	> 62.5 µM	22.9 µM	> 62.5 µM	23.3 µM	> 62.5 µM	> 62.5 µM	> 62.5 µM	35.7 µM	> 62.5 µM	20.6 µM	> 62.5 µM	> 62.5 µM	> 62.5 µM	36.6 µM	> 62.5 µM	> 62.5 µM	> 62.5 µM	45.4 µM	> 62.5 µM
CCCCCOc1ccc(/C=N/Nc2cc(C)nc3ccc(Br)cc23)cc1	1.86 µM	3.64 µM	1.77 µM	3.17 µM	1.81 µM	3.89 µM	2.33 µM	5.64 µM	1.66 µM	3.13 µM	1.97 µM	3.73 µM	1.76 µM	3.18 µM	1.8 µM	3.43 µM	1.85 µM	3.82 µM	1.77 µM	3.39 µM
CCN1C(=O)N(CC)C2C1NN=c1s/c(=C3\C(=O)N(CC(C)(C)C)c4ccccc43)c(=O)n12 (stereo not drawn)	3.38 µM	15.4 µM	4.04 µM	18.1 µM	5.71 µM	53.7 µM	2.66 µM	19.7 µM	3.06 µM	15.8 µM	4.8 µM	32.1 µM	1.54 µM	7.1 µM	5.65 µM	27.8 µM	3.39 µM	14.5 µM	2.77 µM	24.2 µM
N#Cc1c(N/N=C/c2ccc(Cl)cc2Cl)nc(N)nc1N1CCCC1	31.8 µM	> 100 µM	24.5 µM	90.2 µM	88.4 µM	> 100 µM	2.4 µM	7.01 µM	25.6 µM	84.2 µM	68.3 µM	> 100 µM	62.2 µM	> 100 µM	19.5 µM	47.6 µM	38.5 µM	> 100 µM	6.26 µM	49.8 µM
